The values that follow come from patent US20080319055A1, “Cooling Compounds” (GIVAUDAN SA, priority 2005, published 2008).

The structures appear in SMILES notation.

For one experiment, the system named is mouth. Nature of the experiment: Application in mouthwash, cooling sensation in the mouth. It counts as in vivo. The settings on record: 50 mL of 1% solution in alcohol per 1 liter mouthwash (also contains peppermint oil); 30 mL swished, gargled and spit out. The procedure: All the ingredients were mixed. 30 mL of obtained solution was put in the mouth, swished around, gargled and spit out.

Experiment [1] concerns trained panel of 4 to 8 people. The experiment can be described thus: Cooling intensity by trained panel, isointensity method versus menthol. It is filed as in vivo. The settings on record: aqueous solutions tasted, compared to aqueous solution of reference menthol at 2 ppm. The procedure: The cooling intensity of the compounds was determined by a trained panel of 4 to 8 people according to the isointensity method as described below.
Aqueous solutions of various concentrations of a chemical compound were prepared and tasted. The cooling intensity of each solution was compared to that of an aqueous solution of the reference compound at 2 ppm, namely menthol.

`COc1ccc(C(=O)NC(C)(C(C)C)C(C)C)cc1` [Ex. 4, N-1-methyl-1-isopropylisobutyl anisamide]: the “cooling sensation in mouthwash” value with mouth is “pleasant cooling sensation was felt in every area of the mouth”. In experiment [1], the rel. cooling intensity is recorded as 1.1.
Take `COC(=O)c1ccc(C(=O)NC(C)(C(C)C)C(C)C)cc1` [Ex. 5C, N-(1-methyl-1-isopropyl-isobutyl) O-methylterephthalamate]: in experiment [1], the rel. cooling intensity was 1.7.
Same read-out and setting: the figure for `COC(=O)c1ccc(C(=O)NC2CC(C)CCC2C(C)C)cc1` (stereo not shown) [Ex. 5D, N-(3-p-menthyl) O-methylterephthalamate] is 2.5.
Still for that read-out and setting: next, `CCC(CC)(CC)NC(=O)c1ccc(-c2ccccc2)cc1` [Ex. 5E, N-(1,1-diethylpropyl)biphenyl-4-carboxamide]: 1.2.
`CC(C)C(C)(NC(=O)c1ccc(-c2ccccc2)cc1)C(C)C` [Ex. 5F, N-(1-methyl-1-isopropyl-isobutyl) biphenyl-4-carboxamide] gave a rel. cooling intensity in experiment [1] of 1.5.
On the same count and under the same terms, the figure for `CC(C)C(NC(=O)c1ccc2c(c1)OCO2)C(C)C` [Ex. 5H, N-(1-isopropyl-isobutyl)benzo[1,3]dioxole-5-carboxamide] is 0.9.
Same read-out and setting: the figure for `CC(C)C(C)(NC(=O)c1ccc2c(c1)OCO2)C(C)C` [Ex. 5K, N-(1-methyl-1-isopropyl-isobutyl)benzo[1,3]dioxole-5-carboxamide] is 0.9; for `CCC(CC)(CC)NC(=O)c1ccc2c(c1)OCO2` [Ex. 5L, N-(1,1-diethylpropyl)benzo[1,3]dioxole-5-carboxamide] it is 0.3.
As to `CC1(C)C2CCC1(C)C(NC(=O)c1ccccc1)C2` (stereo not shown) [Ex. 5M, N-bornyl benzamide], the rel. cooling intensity in experiment [1] is 0.6.
